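Test compounds were applied to cells in 96-well plates for 48 hours at 5 doses. TGI denotes the concentration required for complete inhibition of growth.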

Results on 14 compounds are retold here after PubChem BioAssay (NCI).

Common to all, as to assay: NCI tumour cell line growth inhibition, 48 h
The subject of experiment [1] is A549 NSCLC.
Experiment [2] deals with COLO 205 colon.
The subject of experiment [3] is HCC-2998 colon.
Experiment [4] concerns HS 578T breast.
Experiment [5] deals with MDA-MB-231 breast.
In experiment [6] the test system is OVCAR-3 ovarian.
The subject of experiment [7] is OVCAR-5 ovarian.
In experiment [8] the test system is SN12C renal.
Experiment [9] has as its system SW-620 colon.
For experiment [10], the system named is NCI-H460 lung.

`Cc1cccc2c(N)c3cccc(C(=O)NCC[N+](C)(C)Cc4c([N+](=O)[O-])ncn4C)c3nc12`: the TGI in experiment [1] is greater than 47.9 µM; in experiment [2], greater than 100 µM; in [3], greater than 95.7 µM; in experiment [4], greater than 96.1 µM; in [5] it was greater than 82.1 µM; in experiment [6], greater than 100 µM. For the same compound, the TGI in experiment [7], in [8] and in experiment [9] was greater than 100 µM throughout.

Consider `CCOC(=O)CN=C1NNS(=O)(=O)c2ccccc21`, for which the TGI in [1], in experiment [2], in [3], in [4], in experiment [5] and in [10] was greater than 100 µM in each case. Moreover, the TGI in [6], in experiment [7], in [8] and in experiment [9] was greater than 100 µM throughout.

As for `COc1ccc(O)c(/C(C)=N/NC(=S)N(C)C)c1`, the TGI in [1], in [2], in [3], in experiment [4], in experiment [5] and in experiment [10] was greater than 100 µM throughout. The TGI in experiment [6], in experiment [7], in [8] and in experiment [9] was greater than 100 µM throughout.

On to `Cc1ccc(-c2c3nc(c(-c4ccc(C)cc4)c4ccc([nH]4)c(-c4ccc(OCC5COC(C)(C)O5)cc4)c4nc(c(-c5ccc(C)cc5)c5ccc2[nH]5)C=C4)C=C3)cc1` (centres undefined), for which the TGI in [1] is greater than 31.6 µM; in experiment [2] it was greater than 31.6 µM; in experiment [3], greater than 31.6 µM; in [4], greater than 100 µM; in experiment [5], greater than 31.6 µM; in experiment [10] it was greater than 31.6 µM. In addition, the TGI in [6], in experiment [7], in experiment [8] and in experiment [9] was greater than 31.6 µM each time.

As to `CC12CCC([C@H](C(O)C3CCCCC3)C1=O)C2(C)C` (some centres undefined), the TGI in experiment [2], in experiment [3], in [4], in experiment [5], in [10] and in [6] was greater than 100 µM throughout. The TGI in [7], in [8] and in experiment [9] was greater than 100 µM in each case.

For `COC(=O)C1C(=O)C=CN([C@H](C)c2ccccc2)[C@@H]1Cc1ccc(OC)c(OCc2ccccc2)c1I` (some centres undefined), the TGI is 71.9 µM in experiment [1]; 31.7 µM in experiment [2]; 32.5 µM in experiment [3]; greater than 100 µM in experiment [4]; 46.7 µM in [5]; 31.7 µM in experiment [10]. Further, the TGI is 28.2 µM in experiment [6], 92.7 µM in experiment [7], 28.8 µM in [8] and greater than 100 µM in experiment [9].

As for `Cc1nn(C(=O)Cc2ccccc2)c2c1C(c1ccc(N(C)C)cc1)SC(N)=N2` (centres undefined), the TGI in experiment [1], in experiment [2], in experiment [3], in experiment [4], in experiment [5] and in [10] was greater than 100 µM throughout. The TGI in experiment [8] and in experiment [9] was greater than 100 µM throughout.

In the case of `NC(N)=N/N=C/c1c(-c2cccc([N+](=O)[O-])c2)nc2n1CCS2`, the TGI in [1] amounted to 41 µM; in [2], 60.6 µM; in [3], 48 µM; in experiment [4] it was 32.1 µM; in experiment [5] it was 44.5 µM; in experiment [10], 53.5 µM. Further, the TGI in experiment [6] was 63 µM; in experiment [7], greater than 100 µM; in experiment [8], 58.5 µM; in experiment [9] it was 37.7 µM.

For `COc1cc(OC)c2c(=O)c(OC)c(-c3ccc4c(c3)OCO4)oc2c1`, the TGI is greater than 100 µM in [1]; greater than 100 µM in experiment [2]; greater than 100 µM in experiment [3]; 97.6 µM in experiment [4]; greater than 100 µM in experiment [5]; greater than 100 µM in experiment [10]. For the same compound, the TGI in experiment [6], in experiment [7], in experiment [8] and in experiment [9] was greater than 100 µM throughout.

In the case of `CC(=O)OCCOCn1cnc2c(Cl)nc(Cl)nc21`, the TGI in experiment [2] amounted to 38.1 µM; in [3] it was 25.6 µM; in experiment [4] it was 40.4 µM; in experiment [5], 29 µM; in experiment [10], 35 µM; in experiment [6], 27.2 µM. The TGI in experiment [7] was determined as 36.9 µM; in [8], 33.9 µM; in experiment [9] it was 30.7 µM.

Turning to `CCOC(=O)C(O)(NC(=O)c1ccc(F)cc1)C(F)(F)F` (centres undefined), the TGI in experiment [1], in experiment [2], in experiment [3], in experiment [4], in experiment [5] and in experiment [6] was greater than 100 µM each time. Moreover, the TGI in [7], in experiment [8] and in experiment [9] was greater than 100 µM throughout.

For `O=C(O)Cc1cccc2c1OC(c1ccccc1)C(Cl)(C(=O)c1ccccc1)C2=O` (centres undefined), the TGI in experiment [1] was 86 µM; in experiment [3], 26.1 µM; in [4], 99.6 µM; in experiment [5], 58.8 µM; in experiment [10], 55.8 µM; in experiment [6], 31.9 µM. In addition, the TGI in experiment [8] was 26.2 µM; in experiment [9] it was 21.2 µM.

On to `c1csc(-c2cc(-c3cccs3)c(-c3ccsc3)s2)c1`, for which the TGI in experiment [1], in experiment [2], in experiment [3], in experiment [4], in experiment [5] and in experiment [10] was greater than 100 µM in each case. The TGI in [8] and in [9] was greater than 100 µM in each case.

For `O=C(O)[C@@H]1CSCN1C(=O)[C@@H]1CCC(=S)N1`, the TGI in experiment [1], in [3], in experiment [4], in experiment [5], in experiment [10] and in [6] was greater than 100 µM in each case. Besides, the TGI in experiment [7], in [8] and in experiment [9] was greater than 100 µM each time.
